Laboratory results taken from patent US11497819B2, “PSMA ligands for imaging and endoradiotherapy” (priority 2017, dated 2022).
Several values for one entry are separate records, joined by “and”; a condition that tells them apart may be missing. Identical values can stand only once. Like-named read-outs stand apart in the source and are kept apart here. *1 amine or outer side, *2 acyl side, *3 side chain or, on linkers, in order; H or OH if unused. Where a SMILES comes first, the peptide text is derived from it. Side-chain parts run from the residue outwards. [ ]: non-standard residue; d: D form. The star is where a group is joined. ξ: configuration not given here. ξOrn(Nα-γGlu(Nα-CO-Glu)) = O=C(O)CC[C@H](NC(=O)N[C@@H](CCC(=O)NC(CCCN*)C(=O)O)C(=O)O)C(=O)O; DOTAGA = O=C(O)CN1CCN(CC(=O)O)CCN(C(CCC(=O)*)C(=O)O)CCN(CC(=O)O)CC1; Phe(4-NO2) = N[C@@H](Cc1ccc([N+](=O)[O-])cc1)C(=O)O; X1 = O=C(c1ccc([N+](=O)[O-])cc1[N+](=O)[O-])*; d2Nal = N[C@H](Cc1ccc2ccccc2c1)C(=O)O; Suc = O=C(CCC(=O)[*:2])[*:1]; Dap = NC[C@H](N)C(=O)O

Legend:
[1] = Lipophilicity, logP in n-octanol/PBS of radiolabeled PSMA inhibitors; format: physicochemical; settings: pH 7.4
Description: The radiolabeled PSMA inhibitor (0.5 to 1.0 MBq) dissolved in PBS (500 μL, pH=7.4), was added to n-octanol (500 μL) in a reaction vial (1.5 mL), which was rigorously vortexed for 3 min (n=6). For quantitative phase separation, the mixture was centrifuged at 6,000 g for 5 min (Biofuge 15, Heraus Sepatech, Osterode, Germany). The activity from samples of each phase (100 μL) were measured in a γ-counter to obtain the log P(o/w) value.

LNCaP cells = assay: Internalization into LNCaP cells, relative cellular uptake to ([^125I]I-BA)KuE; format: cell-based; settings: c = 1.0 nM ^177Lu-labeled inhibitor, 37° C., 60 min, corrected for non-specific binding (10 μM 2-PMPA), mean ± SD (n = 3)
Description: PSMA-positive LNCAP cells (300265; Cell Lines Service GmbH) were cultivated in Dulbecco modified Eagle medium/Nutrition Mixture F-12 (1/1) (DMEM-F12, Biochrom) supplemented with fetal calf serum (FCS) (10%, Biochrom) and kept at 37° C. in a humidified CO2 atmosphere (5%). One day (24 h±2 h) prior to all experiments with LNCaP cells, the cultivated cells were harvested using a mixture of trypsin/ethylendiaminetetraacetate (0.05%/0.02%) and PBS and centrifuged. After centrifugation, the supernatant was disposed and the cell pellet resuspended in culture medium. Afterwards, cells were counted with a hemocytometer (Neubauer) and seeded in 24-well plates.
Subsequent to the removal of the culture medium, the cells were washed once with DMEM-F12-solution (500 μL, 5% BSA) and left to equilibrate for at least 15 min at 37° C. in DMEM-F12-solution (200 μL, 5% BSA). Afterwards, each well was treated with either DMEM-F12-solution (25 μL, 5% BSA) or 2-PMPA-solution (25 μL, 100 μm) for blockade. […] The experiment was terminated by placing the 24-well plate on ice for 3 min and the consecutive removal of the medium. Each well was rinsed with HBSS (250 μL) and the fractions from these first two steps combined, representing the amount of free radioligand. Removal of surface bound activity was accomplished by incubation of the cells with ice-cold 2-PMPA-solution (250 μL, 10 μm in PBS) for 5 min and subsequent rinsing with ice-cold PBS (250 μL). The internalized activity was determined through incubation of the cells in NaOH (250 μL, 1.0 m) and the combination with the fraction of the subsequent washing step with again NaOH (250 μL, 1.0 m). Each experiment (control and blockade) was performed in triplicate for each time point. Free, surface bound and internalized activity was quantified in a γ-counter.

LNCaP-tumor xenograft = assay: Biodistribution in LNCaP-tumor xenograft bearing CB-17 SCID mice; format: in vivo
Description: All animal experiments were carried out in accordance with the general animal welfare regulations in Germany (Deutsches Tierschutzgesetz, approval #55.2-1-54-2532-71-13). For the tumor model, LNCaP cells (approx. 10^7 cells) were suspended in serum-free DMEM-F12 medium and Matrigel (1/1; v/v) (BD Biosciences, Germany) and inoculated onto the right shoulder of male, 6 to 8 weeks old CB-17 SCID mice (Charles River Laboratories, Sulzfeld, Germany). Animals were used after the tumor size reached 4 to 8 mm in diameter for experiments.

HSA = target: T1, HSA (Homo sapiens, UniProt P02768); assay: HSA binding on Chiralpak HSA column; format: in vitro ADME
T1 construct: purchased Daicel Chemical Industries / Chiral Technologies Europe (Illkirch, France)
Description: HSA binding experiments were performed as previously described. […] For each run, 10 μL of the solution containing the inhibitor was injected into the RP-HPLC system and the retention time measured. […] Non-linear regression was established with OriginPro 2016G.

[2] = male, CB-17 SCID, mouse, in vivo, 1 h
[3] = distribution coefficient in n-octanol/PBS, radiolabeled inhibitor, mean ± SD (n = 6), read-out: logP
[4] = after logarithmic plotting and calibration (n = 1)

T1 sequence (P02768 25-609): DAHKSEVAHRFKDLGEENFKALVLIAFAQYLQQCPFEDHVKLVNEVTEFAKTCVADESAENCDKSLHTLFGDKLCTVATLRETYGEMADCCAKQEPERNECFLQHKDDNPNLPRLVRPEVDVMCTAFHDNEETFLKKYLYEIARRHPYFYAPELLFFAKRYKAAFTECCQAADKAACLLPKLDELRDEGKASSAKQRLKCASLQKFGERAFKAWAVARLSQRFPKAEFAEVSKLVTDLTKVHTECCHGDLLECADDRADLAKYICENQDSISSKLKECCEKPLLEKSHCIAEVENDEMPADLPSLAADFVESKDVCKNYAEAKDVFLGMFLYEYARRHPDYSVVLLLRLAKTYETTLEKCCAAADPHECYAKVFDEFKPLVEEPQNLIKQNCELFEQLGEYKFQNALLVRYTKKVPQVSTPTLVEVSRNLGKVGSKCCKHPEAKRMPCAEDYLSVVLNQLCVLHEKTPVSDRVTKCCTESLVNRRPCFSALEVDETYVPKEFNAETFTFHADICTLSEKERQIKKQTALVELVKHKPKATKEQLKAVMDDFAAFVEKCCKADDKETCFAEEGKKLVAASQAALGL

Nc1ccc(C[C@@H](NC(=O)CCC(C(=O)O)N2CCN(CC(=O)O)CCN(CC(=O)O)CCN(CC(=O)O)CC2)C(=O)N[C@H](Cc2ccc(O)cc2)C(=O)N[C@H](Cc2ccc3ccccc3c2)C(=O)N[C@H](CCCCNC(=O)CCC(=O)NCCCC(NC(=O)CC[C@H](NC(=O)N[C@@H](CCC(=O)O)C(=O)O)C(=O)O)C(=O)O)C(=O)O)cc1 (stereo in doubt) [PSMA-49, DOTAGA-F(4-NH2)y-2-nal-k(Suc-N^5-orn-C^4-EuE)]
logP [1]: -4.01 ± 0.11
Internalization (LNCaP cells): 245.0 ± 4.2%
adrenal gland (LNCaP-tumor xenograft; [2]): 5.66 ± 1.66 % ID/g
blood (LNCaP-tumor xenograft; [2]): 0.46 ± 0.06 % ID/g
bone (LNCaP-tumor xenograft; [2]): 0.29 ± 0.14 % ID/g
brain (LNCaP-tumor xenograft; [2]): 0.03 ± 0.01 % ID/g
heart (LNCaP-tumor xenograft; [2]): 0.57 ± 0.11 % ID/g
intestine (LNCaP-tumor xenograft; [2]): 0.30 ± 0.08 % ID/g
liver (LNCaP-tumor xenograft; [2]): 0.99 ± 0.19 % ID/g
lung (LNCaP-tumor xenograft; [2]): 1.47 ± 0.25 % ID/g
muscle (LNCaP-tumor xenograft; [2]): 0.17 ± 0.02 % ID/g
pancreas (LNCaP-tumor xenograft; [2]): 0.56 ± 0.07 % ID/g
spleen (LNCaP-tumor xenograft; [2]): 20.53 ± 6.79 % ID/g
stomach (LNCaP-tumor xenograft; [2]): 0.35 ± 0.10 % ID/g
tumor (LNCaP-tumor xenograft; [2]): 8.21 ± 0.23 % ID/g
tumor/blood (LNCaP-tumor xenograft; [2]): 17.8
tumor/kidney (LNCaP-tumor xenograft; [2]): 0.05
tumor/muscle (LNCaP-tumor xenograft; [2]): 48.3

O=C(O)CC[C@H](NC(=O)N[C@@H](CCC(=O)NC(CCCNC(=O)CCC(=O)NCCCC[C@@H](NC(=O)[C@@H](Cc1ccc2ccccc2c1)NC(=O)[C@@H](Cc1ccc(O)cc1)NC(=O)CCC(C(=O)O)N1CCN(CC(=O)O)CCN(CC(=O)O)CCN(CC(=O)O)CC1)C(=O)O)C(=O)O)C(=O)O)C(=O)O (some centres unmarked) [PSMA-46, DOTAGA-y-2-nal-k(Suc-N^5-orn-C^4-EuE)]
logP [1, 3]: -4.21 ± 0.08
Internalization (LNCaP cells): 216.2 ± 9.2%
HSA (albumin binding) (HSA; [4]): 57.7%

O=C(O)CC[C@H](NC(=O)N[C@@H](CCC(=O)NC(CCCNC(=O)CCC(=O)NCCCC[C@@H](NC(=O)[C@@H](Cc1ccc2ccccc2c1)NC(=O)[C@@H](Cc1ccc(O)cc1)NC(=O)[C@H](Cc1ccc([N+](=O)[O-])cc1)NC(=O)CCC(C(=O)O)N1CCN(CC(=O)O)CCN(CC(=O)O)CCN(CC(=O)O)CC1)C(=O)O)C(=O)O)C(=O)O)C(=O)O (some centres unmarked) [PSMA-52, DOTAGA-F(4-NO2)-y-2-nal-k(Suc-N^5-orn-C^4-EuE)] ({DOTAGA}-[Phe(4-NO2)][dY][d2Nal][dK]([Suc-ξOrn(Nα-γGlu(Nα-CO-Glu))])-OH)
logP [1]: -4.11 ± 0.07
Internalization (LNCaP cells): 229.9 ± 8.0%
HSA (albumin binding) (HSA; human, 0.5 mg/mL): 95.4%

O=C(O)CC[C@H](NC(=O)N[C@@H](CCC(=O)NC(CCCNC(=O)CCC(=O)NCCCC[C@@H](NC(=O)[C@@H](Cc1ccc2ccccc2c1)NC(=O)[C@@H](Cc1ccc(O)cc1)NC(=O)[C@H](CNC(=O)CCC(C(=O)O)N1CCN(CC(=O)O)CCN(CC(=O)O)CCN(CC(=O)O)CC1)NC(=O)c1ccc([N+](=O)[O-])cc1[N+](=O)[O-])C(=O)O)C(=O)O)C(=O)O)C(=O)O (some centres unmarked) [PSMA-53, 2,4-DNBA-Dap(DOTAGA)-y-2-nal-k(Suc-N^5-orn-C^4-EuE)] (X1-[Dap](DOTAGA)[dY][d2Nal][dK]([Suc-ξOrn(Nα-γGlu(Nα-CO-Glu))])-OH)
logP [1, 3]: -4.08 ± 0.04
Internalization (LNCaP cells): 293.6 ± 10.0%
HSA (albumin binding) (HSA; [4]): 95.9%

Nc1ccc(C[C@H](NC(=O)CCC(C(=O)O)N2CCN(CC(=O)O)CCN(CC(=O)O)CCN(CC(=O)O)CC2)C(=O)N[C@H](Cc2ccc(O)cc2)C(=O)N[C@H](Cc2ccc3ccccc3c2)C(=O)N[C@H](CCC(=O)Nc2ccc(C(=O)NCCCC(NC(=O)CC[C@H](NC(=O)N[C@@H](CCC(=O)O)C(=O)O)C(=O)O)C(=O)O)cc2)C(=O)O)cc1 (some centres unmarked) [PSMA-60, DOTAGA-F(4-NH2)y-2-nal-e(Abz-N^5-orn-C^4-EuE)]
logP [1]: -3.85 ± 0.13
Internalization (LNCaP cells): 267.4 ± 7.9%

Nc1ccc(C[C@H](NC(=O)CCC(C(=O)O)N2CCN(CC(=O)O)CCN(CC(=O)O)CCN(CC(=O)O)CC2)C(=O)N[C@H](Cc2ccc(O)cc2)C(=O)N[C@H](Cc2ccc3ccccc3c2)C(=O)N[C@H](CCCCNC(=O)[C@@H](CC(=O)NCCCC(NC(=O)CC[C@H](NC(=O)N[C@@H](CCC(=O)O)C(=O)O)C(=O)O)C(=O)O)NC(=O)c2ccc([N+](=O)[O-])cc2[N+](=O)[O-])C(=O)O)cc1 (some centres unmarked) [PSMA-61, DOTAGA-F(4-NH2)y-2-nal-k(d[N^5-orn-C^4-EuE]-2,4-DNBA)]
logP [1, 3]: -4.07 ± 0.05
Internalization (LNCaP cells): 359.5 ± 22.6%
tumor (LNCaP-tumor xenograft; 1 h p.i., ^177Lu-labeled, n = 4): 8.00±0.75 % ID/g
tumor (LNCaP-tumor xenograft; 24 h p.i., ^177Lu-labeled, n = 4): 7.70±1.35 % ID/g
HSA (albumin binding) (HSA; [4]): 63.3%

O=C(O)CC[C@H](NC(=O)N[C@@H](CCC(=O)NC(CCCNC(=O)c1ccc(NC(=O)CC[C@@H](NC(=O)[C@@H](Cc2ccc3ccccc3c2)NC(=O)[C@@H](Cc2ccc(O)cc2)NC(=O)[C@H](CNC(=O)CCC(C(=O)O)N2CCN(CC(=O)O)CCN(CC(=O)O)CCN(CC(=O)O)CC2)NC(=O)c2ccc([N+](=O)[O-])cc2[N+](=O)[O-])C(=O)O)cc1)C(=O)O)C(=O)O)C(=O)O (some centres unmarked) [PSMA-65, 2,4-DNBA-Dap(DOTAGA)y-2-nal-e(Abz-N^5-orn-C^4-EuE)]
logP [1, 3]: -4.15 ± 0.08
Internalization (LNCaP cells; listed as [^nat/177Lu]PSMA-65): 340.2 ± 19.9% and 340.2 ± 18.9%
HSA (albumin binding) (HSA; after logarithmic plotting and calibration (n = 1), listed as [^nat/177Lu]PSMA-65): 98.7%

Nc1ccc(C[C@H](NC(=O)CCC(C(=O)O)N2CCN(CC(=O)O)CCN(CC(=O)O)CCN(CC(=O)O)CC2)C(=O)N[C@H](Cc2ccc(O)cc2)C(=O)N[C@H](Cc2ccc3ccccc3c2)C(=O)N[C@H](CCCCNC(=O)[C@@H](CC(=O)NCCCC(NC(=O)CC[C@H](NC(=O)N[C@@H](CCC(=O)O)C(=O)O)C(=O)O)C(=O)O)NC(=O)c2cc(O)cc(O)c2)C(=O)O)cc1 (some centres unmarked) [PSMA-78, DOTAGA-F(4-NH2)y-2-nal-k(d[N^5-orn-C^4-EuE]-3,5-DHBA)]
Internalization (LNCaP cells): 289.0 ± 6.2%
